Source: ChEMBL document CHEMBL3877281, “Extending the structure-activity relationship study of marine natural ningalin B analogues as P-glycoprotein inhibitors” (Eur J Med Chem, 2017)

Tests used:
Homo sapiens [1] = species on record: Homo sapiens; test: Inhibition of P-gp in human MDA435/LCC6MDR cells assessed as potentiation of paclitaxel-induced cytotoxicity at 1 uM measured after 5 days by Cell Titer 96 Aqueous assay relative to paclitaxel alone; format: cell-based
[2] = Cytotoxicity against mouse L929 cells measured after 3 days by MTS assay; format: toxicity
[3] = Inhibition of P-gp in human MDA435/LCC6MDR cells assessed as reduction of paclitaxel cytotoxic IC50 by half measured after 5 days by Cell Titer 96 Aqueous assay; format: cell-based; conditions: 120 h
[4] = Inhibition of P-gp in human MDA435/LCC6MDR cells assessed as reduction of doxorubicin cytotoxic IC50 by half after 5 days by Cell Titer 96 Aqueous assay; format: cell-based; conditions: 120 h
[5] = Inhibition of P-gp in human MDA435/LCC6MDR cells assessed as reduction of vinblastine cytotoxic IC50 by half measured after 5 days by Cell Titer 96 Aqueous assay; format: cell-based; conditions: 120 h
[6] = Inhibition of P-gp in human MDA435/LCC6MDR cells assessed as reduction of vincristine cytotoxic IC50 by half measured after 5 days by Cell Titer 96 Aqueous assay; format: cell-based; conditions: 120 h
P-gp [7] = test: Selectivity index, ratio of IC50 for cytotoxicity against mouse L929 cells to EC50 for inhibition of P-gp in human MDA435/LCC6MDR cells assessed as reduction of paclitaxel cytotoxic IC50 by half; format: toxicity, cell-based; conditions: probe paclitaxel, read-out: Ratio IC50/EC50
P-gp [8] = test: Selectivity index, ratio of IC50 for cytotoxicity against mouse L929 cells to EC50 for inhibition of P-gp in human MDA435/LCC6MDR cells assessed as reduction of doxorubicin cytotoxic IC50 by half; format: toxicity, cell-based; conditions: probe doxorubicin, read-out: Ratio IC50/EC50
P-gp [9] = test: Selectivity index, ratio of IC50 for cytotoxicity against mouse L929 cells to EC50 for inhibition of P-gp in human MDA435/LCC6MDR cells assessed as reduction of vinblastine cytotoxic IC50 by half; format: toxicity, cell-based; conditions: probe vinblastine, read-out: Ratio IC50/EC50
P-gp [10] = test: Selectivity index, ratio of IC50 for cytotoxicity against mouse L929 cells to EC50 for inhibition of P-gp in human MDA435/LCC6MDR cells assessed as reduction of vincristine cytotoxic IC50 by half; format: toxicity, cell-based; conditions: probe vincristine, read-out: Ratio IC50/EC50
Homo sapiens [11] = species on record: Homo sapiens; test: Potency index, ratio of EC50 for verapamil to EC50 for test compound for inhibition of P-gp in human MDA435/LCC6MDR cells assessed as reduction of paclitaxel cytotoxic IC50 by half; format: cell-based
Homo sapiens [12] = species on record: Homo sapiens; test: Potency index, ratio of EC50 for verapamil to EC50 for test compound for inhibition of P-gp in human MDA435/LCC6MDR cells assessed as reduction of doxorubicin cytotoxic IC50 by half; format: cell-based
Homo sapiens [13] = species on record: Homo sapiens; test: Potency index, ratio of EC50 for verapamil to EC50 for test compound for inhibition of P-gp in human MDA435/LCC6MDR cells assessed as reduction of vinblastine cytotoxic IC50 by half; format: cell-based
Homo sapiens [14] = species on record: Homo sapiens; test: Potency index, ratio of EC50 for verapamil to EC50 for test compound for inhibition of P-gp in human MDA435/LCC6MDR cells assessed as reduction of vincristine cytotoxic IC50 by half; format: cell-based
Homo sapiens [15] = species on record: Homo sapiens; test: Inhibition of P-gp in human MDA435/LCC6MDR cells assessed as increase in doxorubicin accumulation at 2 uM measured after 150 mins by fluorescence spectrophotometric method relative to control; format: cell-based
Homo sapiens [16] = species on record: Homo sapiens; test: Inhibition of P-gp in human MDA435/LCC6MDR cells assessed as increase in rhodamine-123 accumulation at 2 uM measured after 150 mins by fluorescence spectrophotometric method relative to control; format: cell-based
Homo sapiens [17] = species on record: Homo sapiens; test: Potency index, ratio of compound effect to verapamil effect for inhibition of P-gp in human MDA435/LCC6MDR cells assessed as increase in rhodamine-123 accumulation; format: cell-based
[18] = Inhibition of P-gp in human MDA435/LCC6MDR cells assessed as increase in doxorubicin accumulation to half of parental LCC6 cells measured after 150 mins by fluorescence spectrophotometric method; format: cell-based; conditions: MDA-435/LCC6, 2.5 h

SMILES | fold change (FC) (Homo sapiens [1]) | further results
COc1ccc(C2=C(c3ccc(OCc4ccccc4)c(OC)c3)C(=O)N(CC(=O)c3ccc(OCc4ccccc4)c(OC)c3)C2=O)cc1OC | 1.4 | –
COc1ccc(C(=O)CN2C(=O)C(c3ccc(OC)c(OC)c3)=C(c3ccc(OC)c(OC)c3)C2=O)cc1 | 7.6 | –
COc1ccc(C2=C(c3ccc(OC)c(OC)c3)C(=O)N(CC(=O)c3ccc(OCc4ccccc4)c(OC)c3)C2=O)cc1 | 22.1 | –
COc1ccc(C2=C(c3ccc(OC)c(OC)c3)C(=O)N(Cc3cc(OC)c(OC)c(OC)c3)C2=O)cc1OC | 13.8 | –
COc1ccc(C2=CC(=O)N(CC(=O)c3ccc(OCc4ccccc4)c(OC)c3)C2=O)cc1OC | 1.4 | –
COc1ccc(C(=O)CN2C(=O)C(c3ccccc3)=C(c3ccc(OC)c(OC)c3)C2=O)cc1 | 2.6 | –
COc1cc(CN2C(=O)c3ccccc3C2=O)cc(OC)c1OC | 1.2 | –
COc1ccc(C2=C(c3ccc(OC)c(OC)c3)C(=O)N(Cc3ccc(S(C)(=O)=O)cc3)C2=O)cc1OC | 3.4 | –
COc1ccc(C(=O)CN2C(=O)C(c3cccc(OC)c3)=C(c3ccc(OC)c(OC)c3)C2=O)cc1 | 3.5 | –
COc1ccc(C2=C(c3ccc(C)cc3)C(=O)N(Cc3ccc(S(C)(=O)=O)cc3)C2=O)cc1OC | 3 | –
COc1ccc(C2=C(c3ccc(OC)c(OC)c3)C(=O)N(CC(=O)c3ccc(S(C)(=O)=O)cc3)C2=O)cc1OC | 1.4 | –
COc1cccc(C2=C(c3ccc(OC)c(OC)c3)C(=O)N(CC(=O)c3ccc(OCc4ccccc4)c(OC)c3)C2=O)c1 | 8.8 | –
COc1ccc(C2=C(SC)C(=O)N(CC(=O)c3ccc(OCc4ccccc4)c(OC)c3)C2=O)cc1OC | 1.4 | –
COc1ccc(C(=O)CN2C(=O)C(c3ccc(OC)cc3)=C(c3ccc(OC)c(OC)c3)C2=O)cc1 | 2.7 | –
COc1ccc(C2=C(c3ccc(OC)c(OC)c3)C(=O)N(CC(=O)c3ccc(OCc4ccccc4)c(OC)c3)C2=O)cc1OC | 39.8 | –
COc1ccc(C2=C(c3ccc(C)cc3)C(=O)N(CC(=O)c3ccc(OCc4ccccc4)c(OC)c3)C2=O)cc1OC | 8.6 | –
COc1ccc(C(=O)CN2C(=O)C(c3ccc(OC)c(OC)c3)=C(c3ccc(OCc4ccccc4)c(OC)c3)C2=O)cc1 | 4.5 | –
COc1ccc(C2=C(c3ccc(OC)c(OC)c3)C(=O)N(CC(=O)c3ccc(OCc4cc(OC)c(OC)c(OC)c4Br)c(OC)c3)C2=O)cc1OC | 48 | IC50 at 3 days [2]: > 100000 nM; EC50 [3]: 165 nM; EC50 [4]: 120 nM; EC50 [5]: 137 nM; EC50 [6]: 132 nM; selectivity ratio (P-gp [7]): > 606; selectivity ratio (P-gp [8]): > 833; selectivity ratio (P-gp [9]): > 730; selectivity ratio (P-gp [10]): > 758; Ratio EC50 (Homo sapiens [11]): 2 to 3.7; Ratio EC50 (Homo sapiens [12]): 2 to 3.7; Ratio EC50 (Homo sapiens [13]): 2 to 3.7; Ratio EC50 (Homo sapiens [14]): 2 to 3.7; fold change (FC) (Homo sapiens [15]): 2.4; fold change (FC) (Homo sapiens [16]): 4.8; Ratio (Homo sapiens [17]): 1.7; EC50 [18]: 78 nM
COc1ccc(C2=C(c3ccc(OC)c(OC)c3)C(=O)N(Cc3ccc(OCc4ccccc4)cc3)C2=O)cc1OC | 4.2 | –
COc1ccc(C2=C(c3ccccc3)C(=O)N(CC(=O)c3ccc(OCc4ccccc4)c(OC)c3)C2=O)cc1OC | 5.9 | –
COc1ccc(C2=C(c3ccccc3)C(=O)N(Cc3cc(OC)c(OC)c(OC)c3)C2=O)cc1OC | 7.1 | –
COc1ccc(C2=C(c3ccc(OC)c(OCc4ccccc4)c3)C(=O)N(Cc3cc(OC)c(OC)c(OC)c3)C2=O)cc1OC | 11.9 | –
COc1ccc(C(=O)CN2C(=O)c3ccccc3C2=O)cc1 | 1.3 | –
COc1ccc(C2=C(c3ccc(OC)c(OC)c3)C(=O)N(Cc3cc(OC)c(OC)c(OC)c3)C2=O)cc1 | 5.1 | –
COc1ccc(C2=C(c3ccc(C)cc3)C(=O)N(CC(=O)c3ccc(S(C)(=O)=O)cc3)C2=O)cc1OC | 2 | –
COc1cccc(C2=C(c3ccc(OC)c(OC)c3)C(=O)N(Cc3cc(OC)c(OC)c(OC)c3)C2=O)c1 | 11.4 | –
COc1cc(C(=O)CN2C(=O)c3ccccc3C2=O)ccc1OCc1ccccc1 | 1.1 | –
COc1ccc(C2=C(c3ccc(OC)c(OC)c3)C(=O)N(Cc3ccc(OCc4ccccc4)c(OC)c3)C2=O)cc1OC | 9.3 | –
COc1ccc(CCN(C)CCCC(C#N)(c2ccc(OC)c(OC)c2)C(C)C)cc1OC (stereo unspecified) [VERAPAMIL] | – | IC50 at 3 days [2]: 89000 nM
